According to ChEMBL document CHEMBL1201862, “PubChem BioAssay data set” (2004):
Activity calls are given as the source filed them.

How the values were obtained:
[1] = molecular target: T1, Eukaryotic translation initiation factor 2-alpha kinase 3 (Homo sapiens, UniProt Q9NZJ5); assay: Dose response cell-based high-throughput screening assay to measure PERK inhibition. [Related pubchem assays: 1416 ]; type: functional
[2] = molecular target: T1, Eukaryotic translation initiation factor 2-alpha kinase 3; assay: Counterscreen assay for PERK inhibitors: Dose response cell-based high throughput screening assay to measure inhibition of PERK at 6 hours. [Related pubchem assays: 1522, 1416 ]; type: functional
[3] = molecular target: T2, Voltage-gated N-type calcium channel alpha-1B subunit/Amyloid beta A4 precursor protein-binding family A member 1 (Homo sapiens, UniProt Q00975+Q02410); assay: disruptors of Mint-PDZ/N-type channel peptide interaction – biochemical, HTRF, set 2, SAR follow-up (AID 434980); type: functional
[4] = molecular target: T2, Voltage-gated N-type calcium channel alpha-1B subunit/Amyloid beta A4 precursor protein-binding family A member 1; assay: disruptors of Mint-PDZ/N-type channel peptide interaction – biochemical, HTRF, SAR follow-up (AID 2489); type: functional
[5] = molecular target: T3, Zinc finger protein mex-5 (Caenorhabditis elegans, UniProt Q9XUB2); assay: potency of MEX-5 RNA-binding blockers – biochemical, C. elegans, fluorescence polarization, dose response (AID 1960)
T3 sequence (Q9XUB2 whole entry): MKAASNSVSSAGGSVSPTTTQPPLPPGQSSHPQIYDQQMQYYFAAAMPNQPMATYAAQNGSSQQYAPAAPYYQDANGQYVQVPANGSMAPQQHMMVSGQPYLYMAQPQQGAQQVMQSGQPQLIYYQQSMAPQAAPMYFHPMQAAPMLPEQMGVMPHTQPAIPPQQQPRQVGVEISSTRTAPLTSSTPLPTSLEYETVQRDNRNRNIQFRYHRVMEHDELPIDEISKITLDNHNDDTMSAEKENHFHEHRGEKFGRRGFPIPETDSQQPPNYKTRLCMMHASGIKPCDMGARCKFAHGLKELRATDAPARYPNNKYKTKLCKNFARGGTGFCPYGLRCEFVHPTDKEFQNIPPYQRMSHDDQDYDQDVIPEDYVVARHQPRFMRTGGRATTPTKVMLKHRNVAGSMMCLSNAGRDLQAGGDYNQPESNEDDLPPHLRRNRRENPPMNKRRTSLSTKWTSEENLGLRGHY

INS1 = assay: INS-1E survival protection against cytokine death – cell-based, luminescence, retest, dose response (AID 449756); type: functional; conditions: Rattus norvegicus;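 note: cell death triggered by IL-1 beta plus TNF-alpha plus IFN-gamma mixture; protective hits raise ATP signal compared with cytokine alone wells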
[6] = molecular target: Female germline-specific tumor suppressor gld-1 (Caenorhabditis elegans, UniProt Q17339); assay: blockers of GLD-1/TGE RNA complex formation – biochemical, fluorescence polarization, C. elegans, dose response (AID 2802);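 note: fluorescence polarization of labeled TGE RNA bound by purified gld-1 protein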
Protein Rev = Protein Rev (Human immunodeficiency virus type 1 group M subtype B (isolate HXB2)(HIV-1), UniProt P04618); assay: blockers of HIV Rev/RRE RNA complex – biochemical, fluorescence polarization, HIV-1, dose response (AID 434976); parameters: species or system Human immunodeficiency virus 1
[7] = molecular target: T4, RNA-binding protein pos-1 (Caenorhabditis elegans, UniProt G5EF15); assay: disruptors of C. elegans POS-1 RNA interaction – biochemical, fluorescence polarization, dose response (AID 1964);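 note: purified POS-1 fused to maltose binding protein made in E. coli; potency of compounds blocking POS-1 binding to fluorescent RNA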
T4 sequence (G5EF15 whole entry): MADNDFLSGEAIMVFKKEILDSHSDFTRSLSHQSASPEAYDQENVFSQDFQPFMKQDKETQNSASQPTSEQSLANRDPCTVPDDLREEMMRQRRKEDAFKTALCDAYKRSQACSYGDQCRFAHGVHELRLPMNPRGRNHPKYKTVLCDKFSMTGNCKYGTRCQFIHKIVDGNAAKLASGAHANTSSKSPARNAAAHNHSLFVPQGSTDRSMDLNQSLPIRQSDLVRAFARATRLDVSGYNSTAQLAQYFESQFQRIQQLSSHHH

Hexokinase HKDC1 = molecular target: T5, Hexokinase HKDC1 (Homo sapiens, UniProt Q2TB90); assay: inhibition of HKDC1 glucose phosphorylation – biochemical, W721R variant, dose response (AID 504729); type: functional
T5 sequence (Q2TB90 whole entry): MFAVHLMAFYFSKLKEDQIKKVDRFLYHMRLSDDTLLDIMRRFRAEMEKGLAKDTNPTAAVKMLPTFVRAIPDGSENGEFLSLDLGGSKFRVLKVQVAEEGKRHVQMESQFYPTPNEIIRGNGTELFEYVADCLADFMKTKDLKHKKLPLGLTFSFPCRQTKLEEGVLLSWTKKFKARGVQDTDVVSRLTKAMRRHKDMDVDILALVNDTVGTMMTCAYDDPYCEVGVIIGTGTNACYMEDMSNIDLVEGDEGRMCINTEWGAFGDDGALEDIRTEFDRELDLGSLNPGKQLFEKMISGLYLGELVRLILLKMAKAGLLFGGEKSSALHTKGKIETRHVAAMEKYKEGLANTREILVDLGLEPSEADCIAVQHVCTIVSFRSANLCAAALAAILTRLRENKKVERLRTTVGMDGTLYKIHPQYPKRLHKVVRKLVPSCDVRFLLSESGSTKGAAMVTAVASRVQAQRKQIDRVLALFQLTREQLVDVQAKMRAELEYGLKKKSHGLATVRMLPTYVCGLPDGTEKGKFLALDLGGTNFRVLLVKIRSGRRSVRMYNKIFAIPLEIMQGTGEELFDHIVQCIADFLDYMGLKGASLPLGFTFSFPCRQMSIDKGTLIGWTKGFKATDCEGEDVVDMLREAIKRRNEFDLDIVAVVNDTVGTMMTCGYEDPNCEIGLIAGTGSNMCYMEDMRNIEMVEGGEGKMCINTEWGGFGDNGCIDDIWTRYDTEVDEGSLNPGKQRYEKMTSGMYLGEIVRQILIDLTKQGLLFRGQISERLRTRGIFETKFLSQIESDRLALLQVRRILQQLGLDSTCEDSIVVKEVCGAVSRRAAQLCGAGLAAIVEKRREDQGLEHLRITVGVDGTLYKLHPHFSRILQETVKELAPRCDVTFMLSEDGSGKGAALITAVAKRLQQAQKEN

T2 sequence (Q00975 whole entry): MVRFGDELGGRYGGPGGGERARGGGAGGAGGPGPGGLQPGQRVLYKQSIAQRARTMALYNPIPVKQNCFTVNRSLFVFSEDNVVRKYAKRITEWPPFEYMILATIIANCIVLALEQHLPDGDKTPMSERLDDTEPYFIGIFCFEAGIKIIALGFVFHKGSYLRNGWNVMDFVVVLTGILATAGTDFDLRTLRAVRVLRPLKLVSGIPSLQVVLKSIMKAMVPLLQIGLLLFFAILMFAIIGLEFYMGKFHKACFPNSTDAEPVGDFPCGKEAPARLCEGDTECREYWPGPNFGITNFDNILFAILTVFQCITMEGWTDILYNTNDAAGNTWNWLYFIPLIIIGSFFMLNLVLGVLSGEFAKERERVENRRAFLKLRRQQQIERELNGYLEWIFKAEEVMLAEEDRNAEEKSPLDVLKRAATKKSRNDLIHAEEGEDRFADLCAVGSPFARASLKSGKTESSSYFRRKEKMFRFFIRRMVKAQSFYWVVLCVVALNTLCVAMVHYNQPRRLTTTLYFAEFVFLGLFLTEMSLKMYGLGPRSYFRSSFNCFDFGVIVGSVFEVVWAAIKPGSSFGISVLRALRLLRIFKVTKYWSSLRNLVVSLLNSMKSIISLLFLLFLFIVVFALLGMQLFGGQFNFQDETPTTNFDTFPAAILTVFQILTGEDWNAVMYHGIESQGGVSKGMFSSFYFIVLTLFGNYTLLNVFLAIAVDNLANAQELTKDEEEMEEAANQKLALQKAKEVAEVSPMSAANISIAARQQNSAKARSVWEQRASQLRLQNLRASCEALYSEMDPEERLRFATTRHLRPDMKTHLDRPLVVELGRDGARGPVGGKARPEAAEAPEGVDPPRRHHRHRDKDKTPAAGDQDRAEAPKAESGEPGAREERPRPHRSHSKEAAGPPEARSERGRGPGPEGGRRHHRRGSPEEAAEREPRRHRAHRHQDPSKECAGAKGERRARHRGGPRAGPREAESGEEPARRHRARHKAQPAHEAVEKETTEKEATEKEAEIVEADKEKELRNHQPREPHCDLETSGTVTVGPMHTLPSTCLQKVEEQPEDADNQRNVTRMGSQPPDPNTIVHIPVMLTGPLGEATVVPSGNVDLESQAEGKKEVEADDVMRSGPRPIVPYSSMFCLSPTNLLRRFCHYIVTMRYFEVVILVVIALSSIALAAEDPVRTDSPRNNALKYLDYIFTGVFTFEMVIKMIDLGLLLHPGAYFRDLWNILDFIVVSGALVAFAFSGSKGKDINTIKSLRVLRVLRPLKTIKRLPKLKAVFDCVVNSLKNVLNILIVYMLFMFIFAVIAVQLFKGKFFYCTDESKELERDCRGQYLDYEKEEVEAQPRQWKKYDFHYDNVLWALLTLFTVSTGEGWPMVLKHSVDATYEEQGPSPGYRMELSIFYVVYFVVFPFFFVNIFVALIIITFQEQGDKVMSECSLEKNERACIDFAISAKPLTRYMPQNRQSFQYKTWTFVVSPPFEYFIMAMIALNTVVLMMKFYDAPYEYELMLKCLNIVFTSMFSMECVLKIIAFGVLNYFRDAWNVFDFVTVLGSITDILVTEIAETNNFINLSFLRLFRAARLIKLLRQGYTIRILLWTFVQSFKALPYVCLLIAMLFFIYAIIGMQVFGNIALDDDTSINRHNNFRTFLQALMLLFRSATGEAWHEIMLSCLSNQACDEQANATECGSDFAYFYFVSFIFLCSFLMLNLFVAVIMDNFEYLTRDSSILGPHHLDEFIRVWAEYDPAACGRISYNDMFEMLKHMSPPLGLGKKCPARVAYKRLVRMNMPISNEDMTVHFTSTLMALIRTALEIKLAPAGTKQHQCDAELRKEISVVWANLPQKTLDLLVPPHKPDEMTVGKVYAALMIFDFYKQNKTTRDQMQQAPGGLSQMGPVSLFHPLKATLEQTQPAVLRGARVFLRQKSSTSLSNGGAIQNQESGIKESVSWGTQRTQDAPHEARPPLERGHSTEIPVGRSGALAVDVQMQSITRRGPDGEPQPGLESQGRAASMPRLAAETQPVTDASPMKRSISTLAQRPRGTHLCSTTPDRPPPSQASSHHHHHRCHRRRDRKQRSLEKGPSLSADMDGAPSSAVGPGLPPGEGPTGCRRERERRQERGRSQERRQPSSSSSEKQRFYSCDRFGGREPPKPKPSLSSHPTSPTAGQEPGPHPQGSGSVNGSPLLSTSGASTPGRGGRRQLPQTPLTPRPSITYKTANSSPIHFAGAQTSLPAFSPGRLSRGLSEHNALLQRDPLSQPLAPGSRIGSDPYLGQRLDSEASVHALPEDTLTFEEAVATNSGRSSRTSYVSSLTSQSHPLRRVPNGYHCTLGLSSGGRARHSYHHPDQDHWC
T2 sequence (Q02410 whole entry): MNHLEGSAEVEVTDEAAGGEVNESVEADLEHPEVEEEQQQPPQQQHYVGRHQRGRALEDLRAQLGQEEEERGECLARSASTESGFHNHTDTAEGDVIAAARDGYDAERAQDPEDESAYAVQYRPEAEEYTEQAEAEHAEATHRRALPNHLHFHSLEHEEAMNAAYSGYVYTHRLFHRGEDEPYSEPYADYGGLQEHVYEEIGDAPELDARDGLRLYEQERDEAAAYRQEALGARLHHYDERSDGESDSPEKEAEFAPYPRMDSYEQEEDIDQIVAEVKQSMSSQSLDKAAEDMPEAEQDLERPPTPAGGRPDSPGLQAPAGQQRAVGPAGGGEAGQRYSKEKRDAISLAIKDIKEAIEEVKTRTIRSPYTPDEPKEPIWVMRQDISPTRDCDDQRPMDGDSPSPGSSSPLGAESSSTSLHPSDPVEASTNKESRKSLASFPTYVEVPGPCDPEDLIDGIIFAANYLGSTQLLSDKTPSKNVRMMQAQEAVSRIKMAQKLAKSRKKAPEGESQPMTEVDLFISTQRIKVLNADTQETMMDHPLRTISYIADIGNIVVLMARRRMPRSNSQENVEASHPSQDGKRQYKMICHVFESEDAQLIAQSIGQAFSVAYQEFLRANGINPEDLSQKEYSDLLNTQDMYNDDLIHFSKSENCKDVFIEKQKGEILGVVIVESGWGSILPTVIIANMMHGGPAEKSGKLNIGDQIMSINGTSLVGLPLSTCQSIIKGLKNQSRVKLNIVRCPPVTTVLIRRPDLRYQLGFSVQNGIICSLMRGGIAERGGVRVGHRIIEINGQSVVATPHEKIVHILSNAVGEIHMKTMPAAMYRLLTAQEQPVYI
T1 sequence (Q9NZJ5 whole entry): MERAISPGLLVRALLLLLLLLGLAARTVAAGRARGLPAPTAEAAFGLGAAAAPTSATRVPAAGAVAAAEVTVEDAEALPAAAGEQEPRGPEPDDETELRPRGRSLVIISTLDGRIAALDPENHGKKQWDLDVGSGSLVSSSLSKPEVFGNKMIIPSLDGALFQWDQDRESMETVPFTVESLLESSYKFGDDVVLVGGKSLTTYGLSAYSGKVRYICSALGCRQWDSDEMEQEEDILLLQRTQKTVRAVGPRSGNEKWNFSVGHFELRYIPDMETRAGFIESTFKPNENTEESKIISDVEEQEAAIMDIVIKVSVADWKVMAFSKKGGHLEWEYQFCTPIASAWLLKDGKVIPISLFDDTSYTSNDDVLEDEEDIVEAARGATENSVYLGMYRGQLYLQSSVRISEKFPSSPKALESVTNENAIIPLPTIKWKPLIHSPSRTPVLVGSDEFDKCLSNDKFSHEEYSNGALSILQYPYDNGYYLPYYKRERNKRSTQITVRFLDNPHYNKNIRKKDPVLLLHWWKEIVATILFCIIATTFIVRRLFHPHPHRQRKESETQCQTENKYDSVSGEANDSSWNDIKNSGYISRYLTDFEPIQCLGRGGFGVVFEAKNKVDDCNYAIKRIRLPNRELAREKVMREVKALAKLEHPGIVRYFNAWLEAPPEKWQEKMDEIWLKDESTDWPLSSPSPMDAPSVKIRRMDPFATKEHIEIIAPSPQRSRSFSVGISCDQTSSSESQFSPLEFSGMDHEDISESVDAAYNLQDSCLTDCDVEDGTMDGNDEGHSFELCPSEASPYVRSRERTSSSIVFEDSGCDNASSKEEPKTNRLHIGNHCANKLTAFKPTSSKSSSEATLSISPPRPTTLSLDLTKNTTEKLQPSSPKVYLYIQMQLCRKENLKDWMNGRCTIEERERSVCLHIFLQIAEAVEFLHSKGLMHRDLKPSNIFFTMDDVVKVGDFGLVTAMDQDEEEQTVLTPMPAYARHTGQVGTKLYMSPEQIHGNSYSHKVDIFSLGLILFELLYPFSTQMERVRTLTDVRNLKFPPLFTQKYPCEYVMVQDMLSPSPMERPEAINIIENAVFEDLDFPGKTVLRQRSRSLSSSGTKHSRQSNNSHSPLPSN
Sequence of Female germline-specific tumor suppressor gld-1 (Q17339 whole entry): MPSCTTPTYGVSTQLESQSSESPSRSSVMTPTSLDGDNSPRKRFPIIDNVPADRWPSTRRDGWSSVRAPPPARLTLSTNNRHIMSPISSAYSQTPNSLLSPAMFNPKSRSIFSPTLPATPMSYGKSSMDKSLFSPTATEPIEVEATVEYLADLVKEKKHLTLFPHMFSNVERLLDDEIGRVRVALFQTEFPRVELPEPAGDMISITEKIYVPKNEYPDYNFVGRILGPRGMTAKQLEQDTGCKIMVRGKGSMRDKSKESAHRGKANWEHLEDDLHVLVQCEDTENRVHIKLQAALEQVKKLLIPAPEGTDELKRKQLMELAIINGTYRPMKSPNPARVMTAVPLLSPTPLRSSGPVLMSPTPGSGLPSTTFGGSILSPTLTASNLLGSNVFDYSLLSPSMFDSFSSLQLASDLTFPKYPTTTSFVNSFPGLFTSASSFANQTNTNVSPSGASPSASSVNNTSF
Sequence of Protein Rev (P04618 whole entry, the tested form may be a part): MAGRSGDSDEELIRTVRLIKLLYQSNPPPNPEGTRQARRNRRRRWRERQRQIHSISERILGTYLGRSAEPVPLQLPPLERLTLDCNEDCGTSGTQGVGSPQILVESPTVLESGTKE

Structure (SMILES): O=C(O)c1ccc(-c2nc(-c3ccccc3)c(-c3cccs3)[nH]2)cc1
- EC50 [1]: > 55.7 µM (not active)
- EC50 [2]: > 55.7 µM (not active)

Structure (SMILES): O=C(NCCc1cccnc1)c1cc(-c2ccco2)nc2ccccc12
- IC50 [3]: > 56.8 µM (inactive)
- IC50 [4]: 29.2 µM (active)

Structure (SMILES): COc1cc2c(cc1OC)-c1c(OC)c(OC)c(OC)c3ccnc(c13)C2=O [OXOPURPUREINE]
- EC50 [5]: 4.83 µM (active)
- AC50 (INS1): 3.34 µM (active)
- IC50 [6]: 6.15 µM (active)
- IC50 (Protein Rev): > 75.4 µM (not active)
- EC50 [7]: 28.6 µM (inconclusive)
- IC50 (Hexokinase HKDC1): 12.1 µM (active)
